Test results reported in US8309790B2, “Animal models for demyelination disorders” (University of Chicago, priority 2005, dated 2012).
Several values for one entry are separate records, joined by “and”; a condition that tells them apart may be missing. Equal values may be shown once.

Key:
Type in all cases: in vivo
[1] = tested on: transgenic littermates overexpressing IFN-γ and/or SOCS1; experiment: IFN-γ-overexpressing mice crossed to PLP/SOCS1 mice, clinical and histological evaluation at postnatal day 21; conditions: for oligodendrocyte density: corpus callosum, postnatal day 21; for G ratio (axon diameter/fiber diameter ratio): hypomyelination defined as G ratio>0.8
Source text: The transgenic mice MBP/IFN-γ and GFAP/tTA×TRE/IFN-γ (lines 184/110 and 184/67) that overexpress IFN-γ in the CNS have been described elsewhere (Corbin et al., 1996; Gao et al., 2000; Lin et al., 2004, 2005). Briefly, MBP/IFN-γ mice are transgenic animals in which IFN-γ expression is driven by the myelin basic protein (MBP) transcriptional control region (Gao et al., 2000). GFAP/tTA×TRE/IFN-γ are double-transgenic mice obtained by mating single-transgenic GFAP/tTA to single-transgenic TRE/IFN-γ (lines 110 and 67) mice. The two TRE/IFN-γ mouse lines, line 110 and line 67, used in the experiments produce different amounts of IFN-γ when crossed to GFA/tTA mice (184/110 and 184/67) (Lin e al., 2004, 2005). GFAP/tTA×TRE/IFN-γ is a tetracycline-off-inducible system in which the glial fibrilary acidic protein (GFAP) transcriptional control region drives the expression of tTA, which in turn, binds to the TRE (tet responsive element) and initiates the expression of IFN-γ. Administration of doxycycline suppresses tTA DNA binding and IFN-γ expression, and doxycycline removal allows for temporally-controlled induction of IFN-γ expression (Gao et al., 1999).
IFN-γ-overexpressing mice were crossed to the PLP/SOCS1 mice in double-transgenic, (MBP/IFN-γ×PLP/SOCS1) and triple-transgenic (GFAP/tTA×TRE/IFN-γ×PLP/SOCS1) mating systems. MBP/IFN-γ×PLP/SOCS1 (172×PLP/SOCS1) mating was performed according to a standard mating protocol. The GFAP/tTA×TRE/IFN-γ×PLP/SOCS1 matings were performed in a 2-step mating process: GFAP/tTA mice were initially crossed to PLP/SOCS1 mice, and double-positive (184×PLP/SOCS1) offspring were then crossed to the TRE/IFN-γ lines 110 and 67, separately. This second mating step was performed according to the previously described “tet-off” protocol. Doxycycline 0.05 mg/ml (Sigma-Aldich) was added to the water of impregnated female mice until embryonic day 14, after which the animals were switched back to normal water, thereby allowing initiation of IFN-γ transcription, which peaks during the postnatal period (Lin et al., 2005).
The litters of the mating systems (F1 generation) were examined daily and sacrificed at postnatal day 21. Clinical evaluation included behavioral observation and challenged ladder walking to elicit tremor. Histological examination included quantitation of the number and density of oligodendrocytes and examination of the myelination patterns. Brain tissue was simultaneously obtained from each animal at the time of sacrifice to verify and measure the expression of IFN-γ and Flag-SOCS1 (see below). The clinical and histological findings were subsequently stratified according to genotype. All animal procedures were conducted in compliance with the National Institutes of Health Guide for Care and Use of Laboratory Animals and were approved by the Institutional Animal Care and Use Committee at The University of Chicago.
Oligodendrocyte cell density was assessed digitally using Axiovision software, at postnatal day 21, as previously described (Lin et al., 2005). The brains were sectioned sagittally through the corpus callosum dividing the brain in two symmetrical halves. Ten frozen sections from each half were prepared at 7 μm thickness, and numbered in the sequence of their preparation. The brains of three animals per study group were prepared in this fashion. Following the CC1 immunostaining the corresponding area of corpus callosum of each section was digitally selected and the corresponding total area obtained. CC1 cell counting was performed manually within the selected areas of each section, and the number of CC1 positive cells per square area (mm^2) calculated. The results were presented as mean±SD of CC1 (+) cells/mm^2 with n=3 animals per study group. […]

[2] = tested on: mice with EAE; experiment: EAE, CNS delivery of INF-γ at the onset of EAE, double (PERK+/+) and triple (PERK+/−) mice; conditions: for Mean of maximum clinical score (mean ± S.D.): 0-5 point scale; for Day of onset of disease (PID: postimmunization day): n = 25; for expression of iNOs, TNF-a, IL-2, IL-12 and IL-10 in the spinal cord: PID 14 (EAE onset), DOX− vs DOX+
[3] = tested on: corpus callosum of GFAP/tTA; TRE/IFN-γ; PERK+/− mice; experiment: Remyelination after cuprizone in double transgenic mice on PERK+/+ or PERK+/− background; conditions: for remyelinated axons: 9 weeks
Source text: The involvement of the ER stress response in the reduction caused by IFN-γ to remyelinate lesions was examined in transgenic mice that were generated to be heterozygous for a loss of function mutation in pancreatic ER kinase (PERK) (Harding, et al., (2001) Mol Cell 7:1153-1163), and to be temporally regulated for expressing INF-γ in the CNS. TRE/IFN-γ mice were first crossed with PERK+/− mice (Harding, et al. (2001) Mol. Cell 7: 1153-1163) on the C57BL/6 background to generate mice the carry the PERK mutation, and the resulting progeny were crossed to GFAP/tTA mice to obtain transgenic mice that were heterozygous for the PERK mutation. The effect of PERK on remyelination in the presence or absence of INF-γ was evaluated as evaluated as a function of the level of myelination of oligodendrocytes in remyelinating lesions and the number of oligodendrocytes present in the remyelinating lesion.
The extent of remyelination was assessed as described in the previous examples in the corpus callosum of PERK+/+ and PERK+/− mice that were made to express INF-γ (DOX− PERK+/+ and DOX− PERK+/−), and in mice in which the expression of INF-γ was repressed (DOX+ PERK+/+ and DOX+ PERK+/−). Remyelination was determined by electron microscopy, and was related to the number of CC1 positive oligodendrocytes and the level of caspase-3 expression in the corpus callosum of all animals. The level of caspase-3 was determined by immunohistochemical methods using anti capsase antibody (active-casoase-3 antibody, 1:50; Cel Signaling Technology) and according to the method described in Example 1. Demyelination was induced in six-week-old GFAP/tTA; TRE/IFN-γ double transgenic mice on a PERK+/− background that had been maintained on doxycycline, by simultaneously treating the mice with 0.2% cuprizone and releasing them from doxycycline (DOX− PERK+/−). Remyelination was allowed to occur by withdrawing cuprizone at week 6.

interferon-γ [IFN-γ]
Incidence of tremor ([1]; 172 × PLP/SOCS1 mating system, ten mice per group): 0%
oligodendrocytes lost ([1]; 184/67 × PLP/SOCS1 system): approximately 40%
percentage of unmyelinated axons ([1]; 184/67 × PLP/SOCS1 system): 57%±7
oligodendrocyte density ([1]; 184/67 × PLP/SOCS1 system): 79±9 CC1 (+) cells/mm^2
G ratio (axon diameter/fiber diameter ratio) ([1]; 184/67 × PLP/SOCS1 system): 0.95±0.04
oligodendrocytes lost ([1]; 184/110 × PLP/SOCS1 system): approximately 20%
percentage of unmyelinated axons ([1]; 184/110 × PLP/SOCS1 system): 41%±6
oligodendrocyte density ([1]; 184/110 × PLP/SOCS1 system): 115±8 CC1 (+) cells/mm^2
G ratio (axon diameter/fiber diameter ratio) ([1]; 184/110 × PLP/SOCS1 system): 0.89±0.02
Mean of maximum clinical score (mean ± S.D.) ([2]; DOX− double mice): 1.63 ± 0.51
MBP mRNA in the spinal cord compared to age-matched naïve mice ([2]; DOX− double mice, PID17, real-time PCR): not significantly decreased
Day of onset of disease (PID: postimmunization day) ([2]; DOX− double mice): 14.7 ± 1.4
Incidence of hind limb paralysis ([2]; DOX− double mice, listed as INF-γ): 2 of 25 and 2/25
Incidence of hind limb paralysis ([2]; DOX− triple mice (PERK+/−)): 18/25
Mean of maximum clinical score (mean ± S.D.) ([2]; DOX− triple mice (PERK+/−)): 2.71 ± 1.11
Day of onset of disease (PID: postimmunization day) ([2]; DOX− triple mice (PERK+/−)): 13.6 ± 0.8
expression of iNOs, TNF-a, IL-2, IL-12 and IL-10 in the spinal cord [2]: strongly enhanced
expression of iNOs, TNF-a, IL-2, IL-12 and IL-10 in the spinal cord ([2]; listed as INF-γ): increased
expression of IL-2 and IL-5 in the spinal cord ([2]; PID 14, DOX− vs DOX+): did not affect
CD3 positive T cell infiltration in the spinal cord ([2]; at EAE onset): did not significantly affect
CD11b positive monocyte infiltration in the spinal cord ([2]; at EAE onset): increased
CD11b positive monocyte infiltration ([2]; at the peak of disease): did not change
expression of iNOs or TNF-γ ([2]; at the peak of disease): did not significantly affect
EAE disease course ([2]; mice heterozygous for the PERK mutation): did not ameliorate
PERK-eIF2α pathway in oligodendrocytes (p-PERK, p-eIF2α, CC1 colocalization) ([2]; spinal cord, EAE onset): markedly activated
remyelinated axons ([3]; DOX− PERK+/+ mice): 31.1%±7.6%
number of CC1 positive oligodendrocytes ([3]; DOX− PERK+/+ mice, corpus callosum, week 9): 123.2±27.5 /0.04 mm^2
remyelinated axons ([3]; DOX− PERK+/− mice, 3 weeks after cuprizone removed): 15.6%±7.6%
CC1 positive oligodendrocytes in the corpus callosum ([3]; DOX− PERK+/− mice, week 9): only a few oligodendrocytes were detected
number of oligodendrocytes positive for caspase-3, DOX− PERK+/− relative to DOX− PERK+/+ ([3]; week 9): 2.3 times
